From US20070213359A1 (ACADIA Pharmaceuticals Inc., priority 2005, published 2007)
Read-outs that look alike come from different tables or passages of the source.

Experiments:
Ghrelin receptor = Ghrelin receptor (Homo sapiens, UniProt Q92847); assay: Receptor Selection and Amplification Technology (R-SAT) assay; type: cell-based; set-up: expressed in transfected cells; host or cells: NIH3T3; settings: for IC50: '—' not defined (nd used separately), read-out: RSAT pIC50 (converted); for Emax: read-out: RSAT Eff(%)
Chain of Ghrelin receptor (Q92847 whole entry): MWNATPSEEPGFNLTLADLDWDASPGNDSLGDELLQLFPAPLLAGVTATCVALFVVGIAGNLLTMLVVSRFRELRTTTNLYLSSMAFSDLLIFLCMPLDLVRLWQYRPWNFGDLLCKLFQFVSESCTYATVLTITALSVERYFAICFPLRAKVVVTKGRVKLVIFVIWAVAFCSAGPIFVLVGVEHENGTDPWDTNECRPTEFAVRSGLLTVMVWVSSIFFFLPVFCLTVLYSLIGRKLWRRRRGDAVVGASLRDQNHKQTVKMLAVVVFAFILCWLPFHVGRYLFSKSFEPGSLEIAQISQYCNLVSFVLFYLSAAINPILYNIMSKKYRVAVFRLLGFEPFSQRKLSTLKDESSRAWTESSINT

GHSR1a receptor = biological target: T1, GHSR1a receptor (Homo sapiens, UniProt Q92847); assay: 125I-Ghrelin binding assay; settings: displacement of 125I-ghrelin (0.053 nM), membranes of HEK293 cells transfected with GHSR1a, Cheng-Prussoff, '—' not defined
T1 construct: expressed in transfected cells; host or cells: HEK293 (membranes)
T1 sequence (Q92847 whole entry): as above

[1] = negative logarithm of ligand concentration causing 50% inhibition of constitutive receptor response, transfected NIH3T3 cells
[2] = percent inhibition at saturating ligand, normalized to reference ligand Substance P analog = 100%
[3] = read-out: Binding pKi (converted)

SMILES	IC50 (Ghrelin receptor; [1]) [nM]	Emax (Ghrelin receptor; [2]) [%]	Ki (GHSR1a receptor; [3]) [nM]	Emax (Ghrelin receptor) [%]	Ki (GHSR1a receptor; Binding pKi) [nM]	IC50 (Ghrelin receptor; […]) [nM]	RSAT Eff(%) (Ghrelin receptor; [2])
CC(=O)c1cn(CCCN2C3CCC2CC(OCC2CC2)C3)c2ccccc12 (stereo not drawn)	1260	89	15800	–	–	–	–
COc1cccc2c(C(C)=O)cn(CC(C)CN3CCC(Oc4cccc(Cl)c4)CC3)c12 (stereo not drawn)	39.8	102	794	–	–	–	–
COc1cccc2c(C(=O)NCc3cccc(Cl)c3)cn(CCCN3CCC(CCOc4ccc(Cl)cc4)CC3)c12	–	–	–	46	251	–	–
CCCCCC=C1CCN(CCCn2cc(C(C)=O)c3ccccc32)CC1	200	139	200	–	–	–	–
CCCCC[C@H]1C[C@H]2CC[C@@H](C1)N2CCCn1cc(C(C)=O)c2cccc(Br)c21	1.26	81	158	–	–	–	–
COc1cccc2c(C(=O)c3ccccc3)cn(CCCN3CCCN(Cc4ccc(F)cc4)CC3)c12	–	–	10	96	–	3.98	–
COc1cccc2c(C(=O)NCc3cccc(C)c3)cn(CCCNCCOc3ccccc3)c12	–	–	–	52	100	–	–
COc1cccc2c(C(C)=O)cn(CCCN3CCN(c4ccc(F)cc4)CC3)c12	15.8	95	501	–	–	–	–
CC(=O)c1cn(CCCN2CCC(Oc3ccc(F)cc3)CC2)c2c(C)cccc12	5.01	72	200	–	–	–	–
CC(=O)c1cn(CCCN2CCCN(Cc3ccccc3Cl)CC2)c2c(Br)cccc12	5.01	95	10	–	–	–	–
COc1cccc2c(C(=O)NCc3cccc(C)c3)cn(CCCNC3Cc4ccccc4C3)c12	–	–	–	84	79.4	398	–
COc1ccccc1C1CCN(CCCn2cc(C(=O)NCC(C)C)c3cccc(OC)c32)CC1	25.1	–	126	108	–	–	–
COc1cccc2c(C#N)cn(CCCN3C4CCC3CC(CCc3ccc(Cl)cc3)C4)c12 (stereo not drawn)	39.8	77	251	–	–	–	–
COc1ccccc1C1CCN(CCCn2cc(C(C)=O)c3cccc(OC)c32)CC1	39.8	–	631	–	–	–	109
CC(=O)c1cn(CCCN2CCCC(Cc3ccccc3Cl)C2)c2c(C#N)cccc12 (stereo not drawn)	–	22	794	–	–	–	–
CCc1cccc2c(C(C)=O)cn(CCCNCCOc3ccccc3)c12	100	106	12.6	–	–	–	–
COc1cccc2c(C(=O)NCC(C)C)cn(CCCN3C4CCC3CC(CC(=O)c3ccccc3)C4)c12 (stereo not drawn)	–	–	–	145	50.1	7.94	–
COc1cccc2c(C(=O)NCc3cccc(C)c3)cn(CCCN3CCCN(Cc4ccccc4Cl)CC3)c12	–	–	–	119	79.4	15.8	–
CC(=O)c1cn(CCCN2CCC(Oc3ccc(F)cc3)CC2)c2c(Cl)cccc12	39.8	120	2000	–	–	–	–
COc1cccc2c(C(=O)c3ccccc3)cn(CCCN3CCCN(CCc4ccccc4)CC3)c12	–	–	–	124	25.1	15.8	–
COc1cccc2c(C(=O)NCc3cccc(C)c3)cn(CCCN3CCC(c4nc(-c5cccnc5)no4)CC3)c12	–	–	–	97	158	79.4	–
CCCCC1CCN(CCCn2cc(C(=O)c3ccccc3)c3cccc(OC)c32)CC1	–	–	–	98	200	5.01	–
COc1cccc2c(C(=O)C3CC3)cn(CCCN3CCN(CCOc4ccc(Cl)cc4)CC3)c12	–	–	–	122	126	20	–
COc1cccc2c(C(C)=O)cn(CCCN3CCC(N(C4CC4)S(=O)(=O)c4ccccc4)CC3)c12	–	–	–	105	2510	15.8	–

SMILES	IC50 (Ghrelin receptor; [1]) [nM]	Emax (Ghrelin receptor; [2]) [%]	Ki (GHSR1a receptor; [3]) [nM]	Emax (Ghrelin receptor) [%]	Ki (GHSR1a receptor; Binding pKi) [nM]	IC50 (Ghrelin receptor; […]) [nM]	RSAT Eff(%) (Ghrelin receptor; [2])
COc1cccc2c(C(=O)Cc3ccccc3)cn(CCCN3C4CCC3CC(Oc3ccc(F)cc3)C4)c12 (stereo not drawn)	–	–	251	99	–	3.98	–
CC(=O)c1cn(CCCN2CCC(Oc3cccc(Cl)c3)CC2)c2c(Cl)cccc12	20	83	100	–	–	–	–
Cc1cccc(CNC(=O)c2cn(CCCN3C4CCC3CC(CCc3ccccc3)C4)c3ccccc23)c1 (stereo not drawn)	–	–	–	108	631	316	–
COc1cccc2c(C(=O)NCC(C)C)cn(CCCN3C4CCC3CC(Oc3ccc(Cl)cc3)C4)c12 (stereo not drawn)	6.31	–	100	–	–	–	107
COc1cccc2c(C(C)=O)cn(CCCN3CCN(c4ncc(C(F)(F)F)cc4Cl)CC3)c12	2.51	–	398	–	–	–	103
COc1cccc2c(C(=O)NCC(C)C)cn(CCCN3CCC(c4nc5ccccc5s4)CC3)c12 [drawing 234]	–	–	–	106	1000	1.58	–
COc1cccc2c(C(=O)c3ccccc3)cn(CCCN3CCN(Oc4cccc(Cl)c4)CC3)c12	–	–	7.94	79	–	6.31	–
COc1cccc2c(C(=O)NCC(C)C)cn(CCCN3CCC(Oc4ccc(F)cc4)CC3)c12	1.58	–	126	90	–	–	–
CC(=O)c1cn(CCCN2C3CCC2CC(Oc2ccc(F)cc2)C3)c2ncccc12 (stereo not drawn)	15.8	77	501	–	–	–	–
COc1cccc2c(C(=O)c3ccccc3)cn(CCCN3CCN(CCOc4ccc(Cl)cc4)CC3)c12	–	–	–	66	126	1000	–
CCCCC1CCN(CCCn2cc(C(C)=O)c3ccccc32)CC1 [drawing 584]	–	–	–	77	3980	631	–
COc1cccc2c(C(=O)c3ccccc3)cn(CCCN3CCC(Oc4ccc(Cl)cc4)CC3)c12	–	–	100	93	–	6.31	–
COc1cccc2c(C(=O)NCc3cccc(Cl)c3)cn(CCCN3[C@@H]4CC[C@H]3C[C@@H](CC(=O)c3ccccc3)C4)c12	–	–	–	111	63.1	50.1	–
COc1cccc2c(C(=O)C3CC3)cn(CCCN3CCC(Oc4cccc(Cl)c4)CC3)c12	1.58	–	20	102	–	–	–
CCCCCC1CC2CCC(C1)N2CCCn1cc(C(C)=O)c2ccccc21 (stereo not drawn)	–	–	–	104	1580	31.6	–
CC(=O)c1cn(CCCN2C3CCC2CC(CCc2ccccc2)C3)c2ccccc12 (stereo not drawn) [drawing 267]	5.01	105	316	–	–	–	–
CC(=O)c1cn(CCCN2C3CCC2CC(CC(=O)c2ccccc2)C3)c2c(C)cccc12 (stereo not drawn)	0.794	91	200	–	–	–	–
COc1cccc2c(C(=O)c3ccccc3)cn(CCCN3C4CCC3CC(Oc3ccc(Cl)cc3)C4)c12 (stereo not drawn)	–	–	100	91	–	7.94	–
CC(=O)c1cn(CCCN2CCC(C(=O)c3ccccc3)CC2)c2c(C)cccc12	3.16	96	100	–	–	–	–
COc1ccccc1C1CCN(CCCn2cc(C(=O)c3ccccc3)c3cccc(OC)c32)CC1	–	–	158	88	–	12.6	–
O=C(c1cn(CCCN2CCCN(Cc3ccccc3Cl)CC2)c2ncccc12)C(F)(F)F	31.6	85	50.1	–	–	–	–
CCCCC1CCN(CCCn2cc(C(=O)NCC(C)C)c3cccc(OC)c32)CC1	–	–	200	93	–	7.94	–
O=C(c1cn(CCCN2C3CCC2CC(CCc2ccccc2)C3)c2ncccc12)C(F)(F)F (stereo not drawn)	31.6	104	200	–	–	–	–
